Results on 24 compounds are retold here after patent US10501421B1, “Substituted benzimidazoles as modulators of Ras signaling” (VANDERBILT UNIVERSITY, priority 2017, dated 2019).

In test [1] the target is Ras GEF SOS (Son of Sevenless) (Homo sapiens, UniProt Q07889). In words: SOS-mediated nucleotide exchange on Ras (BODIPY-GDP fluorescence). It counts as biochemical. The conditions noted are these: SOS-mediated exchange of BODIPY-GDP for GTP on Ras. How it is done: Compounds of the present invention were tested for their ability to modify the rate at which Ras exchanges a labeled nucleotide guanosine diphosphate (GDP) analog for guanosine triphosphate (GTP). Briefly, test compounds, then GTP and the Ras GEF SOS (Son of Sevenless) are added to a buffered solution containing Ras protein loaded with BODIPY-GDP. Changes in fluoresence indicating exchange of the labeled GDP for GTP are monitored over time. Raw fluorescence data was fit to a single exponential decay function and derived rates were plotted as mean values. EC50 values were calculated by plotting mean derived rates as a function of compound concentration and fit using a four-parameter dose-response curve. This assay is performed in a method analogous to the assay disclosed in: Burns, M. C.; Sun, Q.; Daniels, R. N.; Camper, D. V.; Kennedy, J. P.; Phan, J.; Olejniczak, E. O.; Lee, T.; Waterson, A. G.; Rossanese, O. W.; Fesik, S. W. “Approach for targeting Ras with small molecules that activate SOS-mediated nucleotide exchange” Proc. Natl. Acad. Sci. 2014; 11(9): 3401-3406. PMCID: PMC3948241.
Sequence of Ras GEF SOS (Son of Sevenless) (P01112 1-166 partner limits assumed, one chain of several): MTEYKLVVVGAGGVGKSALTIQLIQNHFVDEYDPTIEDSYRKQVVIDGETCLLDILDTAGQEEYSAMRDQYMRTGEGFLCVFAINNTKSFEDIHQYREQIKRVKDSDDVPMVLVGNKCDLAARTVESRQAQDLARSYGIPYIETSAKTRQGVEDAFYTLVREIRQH

A further test concerns the target T1, Son of Sevenless (SOS) (Homo sapiens, UniProt Q07889).
T1 sequence (Q07889 564-1049 limits assumed): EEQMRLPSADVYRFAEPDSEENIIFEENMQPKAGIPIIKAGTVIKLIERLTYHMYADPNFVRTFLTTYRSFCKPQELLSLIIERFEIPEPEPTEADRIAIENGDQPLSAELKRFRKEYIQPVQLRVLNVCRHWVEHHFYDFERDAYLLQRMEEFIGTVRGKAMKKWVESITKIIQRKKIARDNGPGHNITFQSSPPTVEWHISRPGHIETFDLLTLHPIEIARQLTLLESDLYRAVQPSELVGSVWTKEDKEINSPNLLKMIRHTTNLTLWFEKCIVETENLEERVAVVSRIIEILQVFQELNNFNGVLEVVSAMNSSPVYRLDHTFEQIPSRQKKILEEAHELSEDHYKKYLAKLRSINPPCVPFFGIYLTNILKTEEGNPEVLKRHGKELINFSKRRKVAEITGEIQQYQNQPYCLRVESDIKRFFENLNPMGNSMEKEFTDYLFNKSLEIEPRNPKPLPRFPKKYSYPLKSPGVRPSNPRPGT
In words: Binding to SOS, fluorescence polarization anisotropy (FPA) probe displacement. The conditions noted are these: displacement of FITC-conjugated probe (Example 285), affinity calculated from IC50. How it is done:
Compounds of the present invention were tested for their ability to bind to the Ras guanine exchange factor (GEF) Son of Sevenless (SOS). Binding to SOS was measured using a Fluorescence polarization anisotropy (FPA) assay that assesses the ability of a test compound to displace a fluorescent FITC-conjugated compound (Example 285). Briefly, the labeled probe compound is incubated with SOS in buffer. Changes in anisotropy indicative of displacement of the labeled probe for a test compound are assessed over a dose range of test compound. Data was analyzed by plotting fluorescence anisotropy values as a function of compound concentration. IC50 values were determined using a four-parameter dose-response (variable slope) and binding affinities were calculated from this IC50 value. This assay is performed in a method analogous to the assay disclosed in: Burns, M. C.; Sun, Q.; Daniels, R. N.; Camper, D. V.; Kennedy, J. P.; Phan, J.; Olejniczak, E. O.; Lee, T.; Waterson, A. G.; Rossanese, O. W.; Fesik, S. W. “Approach for targeting Ras with small molecules that activate SOS-mediated nucleotide exchange” Proc. Natl. Acad. Sci. 2014; 11(9): 3401-3406. PMCID: PMC3948241.

Where a name gives a salt, the structure may show the parent alone. Bounds are passed on as bounds.

Turning to `CCCN1CC[C@@H](C(=O)c2ccccc2)C1c1cc(Cl)cc2c1nc(N1CCNCC1)n2Cc1cc(C)c(F)c(C)c1` (stereo in doubt) [Example 149, ((2S,3R)-2-(6-chloro-1-(4-fluoro-3,5-dimethylbenzyl)-2-(piperazin-1-yl)-1H-benzo[d]imidazol-4-yl)-1-propylpyrrolidin-3-yl)(phenyl)methanone trifluoroacetate], in test [1], the concentration for a half-maximal effect (EC50) (usually the concentration giving half of the maximal effect) fell in the range of 5 to 30 µM. Further, the Ki (in general, a measure of affinity in units of concentration, obtained from inhibition or displacement) on Son of Sevenless (SOS) is 1 to 5 µM. In the case of `CCCN1CC[C@@H](C(=O)c2ccccc2)C1c1cc(Cl)cc2c1nc(N1CCNCC1)n2Cc1ccc(F)c(Cl)c1` (stereo in doubt) [Example 154, ((2S,3R)-2-(6-chloro-1-(3-chloro-4-fluorobenzyl)-2-(piperazin-1-yl)-1H-benzo[d]imidazol-4-yl)-1-propylpyrrolidin-3-yl)(phenyl)methanone trifluoroacetate], the concentration for a half-maximal effect (EC50) in test [1] was 1 to 5 µM. Moreover, the Ki at Son of Sevenless (SOS) is 1 to 5 µM. For `Fc1ccc(Cn2c(N3CCNCC3)nc3ccccc32)cc1Cl` [Example 7, 1-(3-chloro-4-fluorobenzyl)-2-(piperazin-1-yl)-1H-benzo[d]imidazole trifluoroacetate], the EC50 in test [1] was in the range of 5 to 30 µM. For the same compound, the Ki at Son of Sevenless (SOS) is > 5 µM. Turning to `Fc1ccc(Cn2c(N3CCNCC3)nc3ccccc32)cc1` [Example 10, 1-(4-fluorobenzyl)-2-(piperazin-1-yl)-1H-benzo[d]imidazole trifluoroacetate], the EC50 in test [1] is 30 to 100 µM. For the same compound, the inhibition constant Ki at Son of Sevenless (SOS) was > 5 µM. Taken in the same sequence, the figures for `Cc1cc2nc(N3CCNCC3)n(Cc3ccc(F)c(Cl)c3)c2cc1C` [Example 16, 1-(3-chloro-4-fluorobenzyl)-5,6-dimethyl-2-(piperazin-1-yl)-1H-benzo[d]imidazole trifluoroacetate] were 1 to 5 µM and 1 to 5 µM. Compound `Cc1cc2nc(NCCN)n(Cc3ccc(F)c(Cl)c3)c2cc1C` [Example 17, N1-(1-(3-chloro-4-fluorobenzyl)-5,6-dimethyl-1H-benzo[d]imidazol-2-yl)ethane-1,2-diamine trifluoroacetate] displayed a concentration for a half-maximal effect (EC50) in test [1] of 1 to 5 µM. Besides, the Ki on Son of Sevenless (SOS) is 1 to 5 µM.

`Cc1cc2nc(N3CCNCC3)n(Cc3cc(F)cc(F)c3)c2cc1C` [Example 18, 1-(3,5-difluorobenzyl)-5,6-dimethyl-2-(piperazin-1-yl)-1H-benzo[d]imidazole trifluoroacetate] gave an EC50 in test [1] of 5 to 30 µM. On Son of Sevenless (SOS), the inhibition constant (Ki) was > 5 µM. On to `Cc1cc2nc(N3CCNCC3)n(Cc3ccc(Cl)cc3)c2cc1C` [Example 19, 1-(4-chlorobenzyl)-5,6-dimethyl-2-(piperazin-1-yl)-1H-benzo[d]imidazole trifluoroacetate], for which, in test [1], the half-maximal effective concentration (EC50) was 5 to 30 µM. Moreover, on Son of Sevenless (SOS), the inhibitory constant (Ki) is > 5 µM.

`Cc1cc2nc(NCCN)n(Cc3ccc(Cl)cc3)c2cc1C` [Example 20, N^1-(1-(4-chlorobenzyl)-5,6-dimethyl-1H-benzo[d]imidazol-2-yl)ethane-1,2-diamine trifluoroacetate]: in test [1], the concentration for a half-maximal effect (EC50) was 5 to 30 µM. Further, at Son of Sevenless (SOS), the Ki is > 5 µM.

`Cc1cc2nc(N3CCNCC3)n(Cc3ccc(F)cc3)c2cc1C` [Example 21, 1-(4-fluorobenzyl)-5,6-dimethyl-2-(piperazin-1-yl)-1H-benzo[d]imidazole trifluoroacetate] displayed a 50% effective concentration (EC50) in test [1] of 5 to 30 µM. For the same compound, on Son of Sevenless (SOS), the inhibition constant (Ki) was > 5 µM.

Compound `Cc1cc2nc(NCCN)n(Cc3ccc(F)cc3)c2cc1C` [Example 22, N^1-(1-(4-fluorobenzyl)-5,6-dimethyl-1H-benzo[d]imidazol-2-yl)ethane-1,2-diamine trifluoroacetate] registered an EC50 in test [1] of 5 to 30 µM. The Ki on Son of Sevenless (SOS) is > 5 µM. Compound `Cc1cc2nc(N3CCN(C)CC3)n(Cc3ccc(F)cc3)c2cc1C` [Example 24, 1-(4-fluorobenzyl)-5,6-dimethyl-2-(4-methylpiperazin-1-yl)-1H-benzo[d]imidazole trifluoroacetate] came in with a 50% effective concentration (EC50) in test [1] of 1 to 5 µM. Further, the inhibitory constant (Ki) at Son of Sevenless (SOS) was > 5 µM. In turn, `Cc1cc2nc(NCCO)n(Cc3ccc(F)c(Cl)c3)c2cc1C` [Example 26, 2-((1-(3-chloro-4-fluorobenzyl)-5,6-dimethyl-1H-benzo[d]imidazol-2-yl)amino)ethan-1-ol] yielded a concentration for a half-maximal effect (EC50) in test [1] of 5 to 30 µM. At Son of Sevenless (SOS), the inhibition constant (Ki) is > 5 µM. Taken in the same sequence, the figures for `Cc1cc2nc(NCCN3CCOCC3)n(Cc3cc(F)cc(F)c3)c2cc1C` [Example 31, 1-(3,5-difluorobenzyl)-5,6-dimethyl-N-(2-morpholinoethyl)-1H-benzo[d]imidazol-2-amine trifluoroacetate] were 5 to 30 µM and > 5 µM. Taken in the same sequence, the figures for `Cc1cc2nc(NCCN)n(Cc3cccc(C(F)(F)F)c3)c2cc1C` [Example 33, N^1-(5,6-dimethyl-1-(3-(trifluoromethyl)benzyl)-1H-benzo[d]imidazol-2-yl)ethane-1,2-diamine trifluoroacetate] were 1 to 5 µM and > 5 µM.

Take `Cc1cc2nc(N3CCNCC3)n(Cc3cccc(Br)c3)c2cc1C` [Example 34, 1-(3-bromobenzyl)-5,6-dimethyl-2-(piperazin-1-yl)-1H-benzo[d]imidazole trifluoroacetate]: the concentration for a half-maximal effect (EC50) in test [1] fell in the range of 5 to 30 µM. Also, the Ki at Son of Sevenless (SOS) is > 5 µM. Taken in the same sequence, the figures for `Cc1cc2nc(NCCN)n(Cc3cccc(Br)c3)c2cc1C` [Example 35, N^1-(1-(3-bromobenzyl)-5,6-dimethyl-1H-benzo[d]imidazol-2-yl)ethane-1,2-diamine trifluoroacetate] were 1 to 5 µM and 1 to 5 µM. In turn, `Cc1cc2nc(N3CCCNCC3)n(Cc3ccc(F)c(Cl)c3)c2cc1C` [Example 36, 1-(3-chloro-4-fluorobenzyl)-2-(1,4-diazepan-1-yl)-5,6-dimethyl-1H-benzo[d]imidazole trifluoroacetate] yielded an EC50 in test [1] of 5 to 30 µM. On Son of Sevenless (SOS), the inhibition constant Ki was > 5 µM. Take `Cc1cc2nc(N3CCNCC3)n(CC3CCCCC3)c2cc1C` [Example 37, 1-(cyclohexylmethyl)-5,6-dimethyl-2-(piperazin-1-yl)-1H-benzo[d]imidazole trifluoroacetate]: the half-maximal effective concentration (EC50) in test [1] is 5 to 30 µM. At Son of Sevenless (SOS), the Ki is > 5 µM. With `Cc1cc2nc(NCCN)n(CC3CCCCC3)c2cc1C` [Example 38, N^1-(1-(cyclohexylmethyl)-5,6-dimethyl-1H-benzo[d]imidazol-2-yl)ethane-1,2-diamine trifluoroacetate], the EC50 in test [1] fell in the range of 5 to 30 µM. Moreover, the inhibition constant (Ki) on Son of Sevenless (SOS) was > 5 µM. With `Cc1cc2nc(N3CCNCC3)n(Cc3ccc(Br)c(Cl)c3)c2cc1C` [Example 39, 1-(4-bromo-3-chlorobenzyl)-5,6-dimethyl-2-(piperazin-1-yl)-1H-benzo[d]imidazole trifluoroacetate], the EC50 in test [1] fell in the range of 1 to 5 µM. In addition, the Ki on Son of Sevenless (SOS) is > 5 µM.

On to `Cc1cc(OCC2CCNCC2)c2nc(N3CCNCC3)n(Cc3cc(C)c(F)c(C)c3)c2c1` [Example 202, 1-(4-fluoro-3,5-dimethylbenzyl)-6-methyl-2-(piperazin-1-yl)-4-(piperidin-4-ylmethoxy)-1H-benzo[d]imidazole], for which the inhibitory constant (Ki) at Son of Sevenless (SOS) is 0.5 to 1 µM. As for `Cc1cc2nc(S(=O)(=O)CCN)n(Cc3ccc(F)c(Cl)c3)c2cc1C` [Example 211, 2-((1-(3-chloro-4-fluorobenzyl)-5,6-dimethyl-1H-benzo[d]imidazol-2-yl)sulfonyl)ethan-1-amine trifluoroacetate], the Ki on Son of Sevenless (SOS) is > 5 µM. `Cc1cc2nc(N3C[C@@H](C)N[C@@H](C)C3)n(Cc3cc(C)c(F)c(C)c3)c2cc1C` [Example 336, 2-((3S,5R)-3,5-dimethylpiperazin-1-yl)-1-(4-fluoro-3,5-dimethylbenzyl)-5,6-dimethyl-1H-benzo[d]imidazole]: on Son of Sevenless (SOS), the Ki was 1 to 5 µM.
